Data taken from patent publication US20210177869A1, “METHODS AND COMBINATIONS FOR MODULATING TOLERANCE TO OPIATES, OPIOIDS OR OPIOID ANALGESICS AND TREATING ACUTE AND CHRONIC PAIN” (CHINA MEDICAL UNIVERSITY, priority 2018, published 2021).

Experiments:
Assay type in all cases: in vivo
mice [1] = test: Thermal hyperalgesia, hot plate test; conditions: for latency of first sign of pain in the hot-plate test: WT and xCT KO mice (both genotypes), ip morphine 10 mg/kg/day or methadone 4 mg/kg/day for 7 days; for analgesic effect in xCT KO mice compared to WT mice: hot plate and von Frey tests, morphine 10 mg/kg/day or methadone 4 mg/kg/day for 7 days; for latencies of the first sign of pain in the hot-plate test, compared to vehicle: wild-type mice, SSZ 30 mg/kg/day, morphine 10 mg/kg/day, methadone 5 mg/kg/day or combinations for 8 days
Experimental: (§1) The thermal hyperalgesia was evaluated by placing the mice in a 1000 ml beaker and on the 56±2° C. hot plate with the maximum of 35 second to prevent tissue damage. The time is recorded when the mice jumps on to the edge of the beaker, the value is considered as the withdrawal threshold. A customized transparent acrylic chamber with the size of 20×20×20 cm and 5 mm thick acrylic with 2 mm diameter holes throughout the entire platform is used to determine the mechanical allodynia and thermal hyperalgesia. Mice were placed in the chamber to evaluate the mechanical allodynia by applying a 0.6 g pressure von Frey hair (Touch-Test Sensory Evaluator, North Coast Medical, Inc) to the hind paws of the mice for five times with a five second interval. If the mice hind paw is withdrawn from the platform over three times, the pressure of the von Frey hair will be recorded and regarded as the withdrawal threshold.

mice [2] = test: Opioid-induced constipation, fecal collection and stool weight; conditions: wild-type mice; SSZ 30 mg/kg, morphine 10 mg/kg or combination, ip, 7 days
Experimental: Fecal collections and the stool weighed were recorded before and after morphine and/or SSZ administration. The fecal was collected every two days.
Opioid-induced constipation is a side effect for using opioid pain relief medication.

mice [3] = test: Opioid tolerance, morphine percent maximal possible effect (% MPE) over 7 days; conditions: WT mice; for development of tolerance, in comparison to the morphine alone group / number of days of morphine-induced analgesic effect, in comparison to the morphine alone group: co-treatment with morphine 20 mg/kg/day, SSZ 60 mg/kg/day or capsazepine 10 mg/kg/day, twice daily 7 days
Experimental: To test whether system xc^− plays a role in opioid tolerance, WT and xCT KO mice were injected intraperitoneally with morphine twice daily and tested on 7 days continuously for determination of their respective morphine percent maximal possible effect (% MPE). Analgesic effect was expressed as % MPE, where % MPE=(test−baseline latency)/(cutoff−baseline)×100. […] Next, the WT mice were received the co-administration of system xc^− inhibitor, SSZ or capsazepine, and morphine twice daily for one-week observation.

mice [4] = test: Mechanical allodynia, von Frey filament test; conditions: for withdraw threshold in von Frey filament test: WT and xCT KO mice (both genotypes), ip morphine 10 mg/kg/day or methadone 4 mg/kg/day for 7 days; for withdraw threshold in von Frey filament test, compared to vehicle: wild-type mice, SSZ 30 mg/kg/day, morphine 10 mg/kg/day, methadone 5 mg/kg/day or combinations for 8 days
Experimental: as §1

morphine-dependent mice = test: Naloxone-precipitated withdrawal jumping in mice with chronic morphine dependence; conditions: for naloxone-induced jumping behavior: naloxone 5 mg/kg + SSZ 30 mg/kg or capsazepine 5 mg/kg
Experimental: Chronic morphine dependence was induced by repeated injections for four consecutive days with an escalating dose schedule. Mice received morphine twice daily (morning and afternoon) for 4 days (day 1: 12 mg/kg and 25 mg/kg; day 2: 25 mg/kg and 50 mg/kg; day 3: 50 mg/kg and 75 mg/kg; day 4: 75 mg/kg and 100 mg/kg). On the testing day (day 5), a final morphine dose (50 mg/kg) was administered before exam.
A single dose of naloxone (5 mg/kg) was administered to all mice 60 mins after the final morphine dose. Immediately, following with naloxone injection, animals were placed into individual Plexiglas observation cylinders. Withdrawal jumping response symptoms were recorded and the frequency of jumps for each mouse was summed over one hour.
It was first determined whether system xc^− contributes to opioid dependence. WT and xCT KO mice were received the repeated injections for four consecutive days with an escalating dose schedule for the induction of chronic morphine dependence. Mice received morphine twice daily (morning and afternoon) for 4 days (day 1: 12 mg/kg and 25 mg/kg; day 2: 25 mg/kg and 50 mg/kg; day 3: 50 mg/kg and 75 mg/kg; day 4: 75 mg/kg and 100 mg/kg). On the testing day (day 5), a final morphine dose (50 mg/kg) was administered before naloxone-induced acute withdrawal syndromes. […] To observe the effect of system xc^− inhibits in opioid withdrawal, mice with chronic morphine dependence were randomly divided into the following groups (sample size N=6 in each group): group 1: control mice without any treatment; group 2: morphine-dependent mice with vehicle treatment; group 3: morphine-dependent mice with naloxone (5 mg/kg) treatment; group 4: morphine-dependent mice with naloxone (5 mg/kg)+methadone (10 mg/kg) treatment; group 5: morphine-dependent mice with naloxone (5 mg/kg)+SSZ (30 mg/kg) treatment; and group 6: morphine-dependent mice with naloxone (5 mg/kg)+capsazepine (5 mg/kg).

| Compound | latency of first sign of pain in the hot-plate test (mice [1]) | analgesic effect in xCT KO mice compared to WT mice (mice [1]) | latencies of the first sign of pain in the hot-plate test, compared to vehicle (mice [1]) | opioid-induced constipation / defecation (stool weight) (mice [2]) | opioid tolerance (% MPE) (mice [3]; morphine 20 mg/kg/day ip twice daily, 7 days) | withdraw threshold in von Frey filament test (mice [4]) | withdraw threshold in von Frey filament test, compared to vehicle (mice [4]) | naloxone-induced jumping behavior (morphine-dependent mice) | development of tolerance, in comparison to the morphine alone group (mice [3]) | number of days of morphine-induced analgesic effect, in comparison to the morphine alone group (mice [3]) | jumping behavior (withdrawal) (morphine-dependent mice; naloxone 5 mg/kg, observed one hour) |
| --- | --- | --- | --- | --- | --- | --- | --- | --- | --- | --- | --- |
| CN1CC[C@]23c4c5ccc(O)c4O[C@H]2[C@@H](O)C=C[C@H]3[C@H]1C5 [morphine] | significantly increased | higher than that in WT mice | more than those in vehicle-treated mice | developed the opioid-induced constipation | significant opioid tolerance on day 3 | significantly increased | more than those in vehicle-treated mice |  |  |  |  |
| Oc1cc2c(cc1O)CN(C(=S)NCCc1ccc(Cl)cc1)CCC2 [capsazepine] |  |  |  |  |  |  |  | inhibited naloxone-induced jumping behavior | significantly attenuated the development of tolerance | prolong the number of days of morphine-induced analgesic effect |  |
| CCC(=O)C(CC(C)N(C)C)(c1ccccc1)c1ccccc1 (stereo not shown) [methadone] | significantly increased | higher than that in WT mice | more than those in vehicle-treated mice |  |  | significantly increased | more than those in vehicle-treated mice |  |  |  |  |
| C=CCN1CC[C@]23c4c5ccc(O)c4O[C@H]2C(=O)CC[C@@]3(O)[C@H]1C5 [naloxone] |  |  |  |  |  |  |  |  |  |  | significant jumping behavior compared to other groups |
| O=C(O)c1cc(/N=N/c2ccc(S(=O)(=O)Nc3ccccn3)cc2)ccc1O [SSZ, sulfasalazine] |  |  | more than those in vehicle-treated mice | didn't decreased or increased defecation |  |  | more than those in vehicle-treated mice | inhibited naloxone-induced jumping behavior | significantly attenuated the development of tolerance | prolong the number of days of morphine-induced analgesic effect |  |
